Results reported in ChEMBL document CHEMBL2413072, “Synthesis and in vitro anticancer studies of novel C-2 arylidene congeners of lantadenes” (2013).

Assays:
Format in all cases: functional
KM12 = test: Growth inhibition of human KM12 cells by sulforhodamine B assay
SF-539 [1] = test: Growth inhibition of human SF539 cells assessed as cell growth at 10^-7 M by sulforhodamine B assay; conditions: read-out: Activity
OVCAR-8 [2] = test: Growth inhibition of human OVCAR8 cells assessed as cell growth at 10^-4 M by sulforhodamine B assay; conditions: read-out: Activity
UACC-257 = test: Growth inhibition of human UACC257 cells by sulforhodamine B assay
Malme-3M = test: Growth inhibition of human MALME-3M cells assessed as cell growth at 10^-8 M by sulforhodamine B assay; conditions: read-out: Activity
NCI-H23 = test: Growth inhibition of human NCI-H23 cells assessed as cell growth at 10^-6 M by sulforhodamine B assay; conditions: read-out: Activity
HCT-116 = test: Growth inhibition of human HCT116 cells by sulforhodamine B assay
K562 [3] = test: Growth inhibition of human K562 cells assessed as cell growth at 10^-4 M by sulforhodamine B assay; conditions: read-out: Activity
RXF 393 = test: Growth inhibition of human RXF393 cells assessed as cell growth at 10^-6 M by sulforhodamine B assay; conditions: read-out: Activity
SR [4] = test: Growth inhibition of human SR cells assessed as cell growth at 10^-8 M by sulforhodamine B assay; conditions: read-out: Activity
MDA-MB-231 = test: Growth inhibition of human MDA-MB-231 cells assessed as cell growth at 10^-8 M by sulforhodamine B assay; conditions: read-out: Activity
M14 = test: Growth inhibition of human M14 cells assessed as cell growth at 10^-6 M by sulforhodamine B assay; conditions: read-out: Activity
A498 = test: Growth inhibition of human A498 cells assessed as cell growth at 10^-7 M by sulforhodamine B assay; conditions: read-out: Activity
OVCAR-5 = test: Growth inhibition of human OVCAR5 cells assessed as cell growth at 10^-7 M by sulforhodamine B assay; conditions: read-out: Activity
SNB-75 [5] = test: Growth inhibition of human SNB75 cells by sulforhodamine B assay
SF-268 = test: Growth inhibition of human SF268 cells assessed as cell growth at 10^-7 M by sulforhodamine B assay; conditions: read-out: Activity
UACC-62 = test: Growth inhibition of human UACC62 cells assessed as cell growth at 10^-8 M by sulforhodamine B assay; conditions: read-out: Activity
OVCAR-4 = test: Growth inhibition of human OVCAR4 cells assessed as cell growth at 10^-8 M by sulforhodamine B assay; conditions: read-out: Activity
CAKI-1 = test: Growth inhibition of human CAKI-1 cells assessed as cell growth at 10^-4 M by sulforhodamine B assay; conditions: read-out: Activity
SF-539 [6] = test: Growth inhibition of human SF539 cells assessed as cell growth at 10^-4 M by sulforhodamine B assay; conditions: read-out: Activity
DU-145 [7] = test: Growth inhibition of human DU145 cells assessed as cell growth at 10^-7 M by sulforhodamine B assay; conditions: read-out: Activity
UO-31 [8] = test: Growth inhibition of human UO31 cells assessed as cell growth at 10^-8 M by sulforhodamine B assay; conditions: read-out: Activity
UO-31 [9] = test: Growth inhibition of human UO31 cells assessed as cell growth at 10^-6 M by sulforhodamine B assay; conditions: read-out: Activity
DU-145 [10] = test: Growth inhibition of human DU145 cells assessed as cell growth at 10^-6 M by sulforhodamine B assay; conditions: read-out: Activity
[11] = Growth inhibition of human Hs 578T cells assessed as cell growth at 10^-4 M by sulforhodamine B assay; conditions: read-out: Activity
SK-MEL-2 = test: Growth inhibition of human SK-MEL-2 cells assessed as cell growth at 10^-6 M by sulforhodamine B assay; conditions: read-out: Activity
T47D = test: Growth inhibition of human T47D cells by sulforhodamine B assay
SNB-75 [12] = test: Growth inhibition of human SNB75 cells assessed as cell growth at 10^-8 M by sulforhodamine B assay; conditions: read-out: Activity
MDA-MB-435 = test: Growth inhibition of human MDA-MB-435 cells assessed as cell growth at 10^-4 M by sulforhodamine B assay; conditions: read-out: Activity
MOLT-4 = test: Growth inhibition of human MOLT4 cells assessed as cell growth at 10^-8 M by sulforhodamine B assay; conditions: read-out: Activity
TK-10 = test: Growth inhibition of human TK10 cells assessed as cell growth at 10^-8 M by sulforhodamine B assay; conditions: read-out: Activity
OVCAR-8 [13] = test: Growth inhibition of human OVCAR8 cells by sulforhodamine B assay
SR [14] = test: Growth inhibition of human SR cells assessed as cell growth at 10^-4 M by sulforhodamine B assay; conditions: read-out: Activity
OVCAR-8 [15] = test: Growth inhibition of human OVCAR8 cells assessed as cell growth at 10^-7 M by sulforhodamine B assay; conditions: read-out: Activity
LOX IMVI = test: Growth inhibition of human LOXIMVI cells assessed as cell growth at 10^-7 M by sulforhodamine B assay; conditions: read-out: Activity
BT-549 = test: Growth inhibition of human BT549 cells assessed as cell growth at 10^-4 M by sulforhodamine B assay; conditions: read-out: Activity
NCI-H322M = test: Growth inhibition of human NCI-H322M cells by sulforhodamine B assay
K562 [16] = test: Growth inhibition of human K562 cells by sulforhodamine B assay
MCF7 = test: Growth inhibition of human MCF7 cells by sulforhodamine B assay
[17] = Growth inhibition of human HCC2998 cells assessed as cell growth at 10^-8 M by sulforhodamine B assay; conditions: HCC 2998, read-out: Activity
[18] = read-out: LC50 (the source's name)
[19] = read-out: pLC50 (the source's name) (converted)

CC1(C)C[C@@H](O)[C@]2(C(=O)O)CC[C@]3(C)C(=CC[C@@H]4[C@@]5(C)C/C(=C\C=C\c6ccccc6)C(=O)C(C)(C)[C@@H]5CC[C@]43C)[C@@H]2C1
GI50 (KM12; read-out: GI50): 3.01 µM | LC50 (50% net cell kill) (KM12; read-out: LC50): 47.2 µM | TGI (KM12; read-out: TGI): 11.2 µM | GI50 (KM12; read-out: pGI50 (converted)): 3.02 µM | LC50 (50% net cell kill) (KM12; read-out: pLC50 (converted)): 46.8 µM | TGI (KM12; read-out: pTGI (converted)): 11.2 µM | growth at 0.1 µM (SF-539 [1]): 92% | growth at 100 µM (OVCAR-8 [2]): -67% | GI50 (UACC-257; read-out: GI50): 2620 nM | CC50 (UACC-257; [18]): 35.1 µM | TGI (UACC-257; read-out: TGI): 9.01 µM | GI50 (UACC-257; read-out: pGI50 (converted)): 2630 nM | CC50 (UACC-257; [19]): 35.5 µM | TGI (UACC-257; read-out: pTGI (converted)): 8.91 µM | growth at 0.01 µM (Malme-3M): 92% | growth at 1 µM (NCI-H23): 95% | GI50 (HCT-116; read-out: GI50): 2890 nM | LC50 (HCT-116; read-out: LC50): 82.7 µM | TGI (HCT-116; read-out: TGI): 11.2 µM | GI50 (HCT-116; read-out: pGI50 (converted)): 2880 nM | LC50 (HCT-116; read-out: pLC50 (converted)): 83.2 µM | TGI (HCT-116; read-out: pTGI (converted)): 11.2 µM | growth at 100 µM (K562 [3]): 1% | growth at 1 µM (RXF 393): 96% | growth at 0.01 µM (SR [4]): 107% | growth at 0.01 µM (MDA-MB-231): 108% | growth at 1 µM (M14): 91% | growth at 0.1 µM (A498): 78% | growth at 0.1 µM (OVCAR-5): 92% | GI50 (SNB-75 [5]; read-out: GI50): 4.27 µM | CC50 (SNB-75 [5]; [18]): 63.7 µM | TGI (SNB-75 [5]; read-out: TGI): 20.9 µM | GI50 (SNB-75 [5]; read-out: pGI50 (converted)): 4.27 µM | CC50 (SNB-75 [5]; [19]): 63.1 µM | TGI (SNB-75 [5]; read-out: pTGI (converted)): 20.9 µM | growth at 0.1 µM (SF-268): 91% | growth at 0.01 µM (UACC-62): 96% | growth at 0.01 µM (OVCAR-4): 100% | growth at 100 µM (CAKI-1): -49% | growth at 100 µM (SF-539 [6]): -90% | growth at 0.1 µM (DU-145 [7]): 104% | growth at 0.01 µM (UO-31 [8]): 88% | growth at 1 µM (UO-31 [9]): 92% | growth at 1 µM (DU-145 [10]): 101% | growth at 100 µM [11]: -35% | growth at 1 µM (SK-MEL-2): 100% | GI50 (T47D; read-out: GI50): 3.83 µM | CC50 (T47D; [18]): > 100 µM | TGI (T47D; read-out: TGI): 18.4 µM | GI50 (T47D; read-out: pGI50 (converted)): 3.8 µM | CC50 (T47D; [19]): > 100 µM | TGI (T47D; read-out: pTGI (converted)): 18.2 µM | growth at 0.01 µM (SNB-75 [12]): 89% | growth at 100 µM (MDA-MB-435): -43% | growth at 0.01 µM (MOLT-4): 104% | growth at 0.01 µM (TK-10): 98% | GI50 (OVCAR-8 [13]; read-out: GI50): 3.41 µM | CC50 (OVCAR-8 [13]; [18]): 60.8 µM | TGI (OVCAR-8 [13]; read-out: TGI): 14.2 µM | GI50 (OVCAR-8 [13]; read-out: pGI50 (converted)): 3.39 µM | CC50 (OVCAR-8 [13]; [19]): 60.3 µM | TGI (OVCAR-8 [13]; read-out: pTGI (converted)): 14.1 µM | growth at 100 µM (SR [14]): -24% | growth at 0.1 µM (OVCAR-8 [15]): 97% | growth at 0.1 µM (LOX IMVI): 95% | growth at 100 µM (BT-549): -72% | GI50 (NCI-H322M; read-out: GI50): 3.45 µM | LC50 (50% lethal concentration) (NCI-H322M; read-out: LC50): 48.7 µM | TGI (NCI-H322M; read-out: TGI): 13.7 µM | GI50 (NCI-H322M; read-out: pGI50 (converted)): 3.47 µM | LC50 (50% lethal concentration) (NCI-H322M; read-out: pLC50 (converted)): 49 µM | TGI (NCI-H322M; read-out: pTGI (converted)): 13.8 µM | GI50 (K562 [16]; read-out: GI50): 3.74 µM | LC50 (K562 [16]; read-out: LC50): > 100 µM | TGI (K562 [16]; read-out: TGI): > 100 µM | GI50 (K562 [16]; read-out: pGI50 (converted)): 3.72 µM | LC50 (K562 [16]; read-out: pLC50 (converted)): > 100 µM | TGI (K562 [16]; read-out: pTGI (converted)): > 100 µM | GI50 (MCF7; read-out: GI50): 3.23 µM | CC50 (MCF7; [18]): 56.9 µM | TGI (MCF7; read-out: TGI): 12.3 µM | GI50 (MCF7; read-out: pGI50 (converted)): 3.24 µM | CC50 (MCF7; [19]): 57.5 µM | TGI (MCF7; read-out: pTGI (converted)): 12.3 µM | growth at 0.01 µM [17]: 92%
